Among the data in patent US11020399B2, “Intermediates useful in the synthesis of compounds as modulators of protein kinases” (Rhizen Pharmaceuticals SA, priority 2011, dated 2021) are inhibition and melting point values, retold here.

One data set concerns the target PI3kα (Homo sapiens, UniProt P42336). The data set can be described thus: Fluorescent (HTRF) determination of PI3 kinase enzyme activity, PI3Kα. It is filed as biochemical. The note with it: 1 uM. In outline: (§1)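 Compounds tested at 1 μM on α and β isoforms and at 0.3 or 0.1 μM on γ and δ, with percent inhibition from blank and enzyme controls, plus IC50 fits. Room-temperature reaction: 10 min enzyme–compound preincubation in MgCl2/DTT buffer with 1.38 μM PIP2, then 30 min after 400 μM ATP addition; PIP3 read by HTRF (665/620 nm).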
Background: TR-FRET usually uses a lanthanide donor and a delayed reading to cut background.

A further data set has as its target PI3kβ (Homo sapiens, UniProt P42338). Briefly: Fluorescent (HTRF) determination of PI3 kinase enzyme activity, PI3Kβ. It is filed as biochemical. The following applies: 1 uM. The procedure, abridged: as §1
In the next data set the target is PI3kγ (Homo sapiens, UniProt P48736). The data set can be described thus: Fluorescent (HTRF) determination of PI3 kinase enzyme activity, PI3Kγ. The class given is biochemical. In outline: as §1
A further data set concerns the target PI3kδ (Homo sapiens, UniProt O00329). Briefly: Fluorescent (HTRF) determination of PI3 kinase enzyme activity, PI3Kδ. The class given is biochemical. In outline: as §1

Sequence of PI3kδ (O00329 whole entry): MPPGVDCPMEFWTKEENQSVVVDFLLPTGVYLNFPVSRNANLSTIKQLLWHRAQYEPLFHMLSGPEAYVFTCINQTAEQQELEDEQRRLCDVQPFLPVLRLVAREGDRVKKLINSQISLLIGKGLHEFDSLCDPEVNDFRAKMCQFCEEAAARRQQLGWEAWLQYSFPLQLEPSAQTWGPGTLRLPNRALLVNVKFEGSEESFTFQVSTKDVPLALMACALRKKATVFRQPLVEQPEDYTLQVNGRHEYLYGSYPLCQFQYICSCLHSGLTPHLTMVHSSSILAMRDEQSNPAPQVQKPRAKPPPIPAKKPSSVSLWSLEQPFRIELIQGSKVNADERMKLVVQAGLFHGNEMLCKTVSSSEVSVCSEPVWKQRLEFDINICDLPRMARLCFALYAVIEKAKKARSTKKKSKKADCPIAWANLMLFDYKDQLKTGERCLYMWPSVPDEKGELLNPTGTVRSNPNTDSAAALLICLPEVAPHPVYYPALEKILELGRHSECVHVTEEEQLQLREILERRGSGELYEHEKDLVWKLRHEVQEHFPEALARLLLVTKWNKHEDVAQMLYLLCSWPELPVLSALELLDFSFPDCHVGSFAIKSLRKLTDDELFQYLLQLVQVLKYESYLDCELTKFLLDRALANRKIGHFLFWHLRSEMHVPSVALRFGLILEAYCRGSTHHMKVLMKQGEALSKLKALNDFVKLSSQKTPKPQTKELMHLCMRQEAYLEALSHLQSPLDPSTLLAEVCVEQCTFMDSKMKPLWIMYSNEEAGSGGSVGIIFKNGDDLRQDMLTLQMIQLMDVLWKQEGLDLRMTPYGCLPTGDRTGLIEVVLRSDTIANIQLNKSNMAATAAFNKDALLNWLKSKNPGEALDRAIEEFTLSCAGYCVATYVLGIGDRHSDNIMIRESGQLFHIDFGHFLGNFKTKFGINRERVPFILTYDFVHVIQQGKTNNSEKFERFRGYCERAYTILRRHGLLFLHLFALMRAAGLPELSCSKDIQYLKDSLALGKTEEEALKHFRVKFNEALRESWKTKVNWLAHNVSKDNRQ
Sequence of PI3kδ (P27986 whole entry partner): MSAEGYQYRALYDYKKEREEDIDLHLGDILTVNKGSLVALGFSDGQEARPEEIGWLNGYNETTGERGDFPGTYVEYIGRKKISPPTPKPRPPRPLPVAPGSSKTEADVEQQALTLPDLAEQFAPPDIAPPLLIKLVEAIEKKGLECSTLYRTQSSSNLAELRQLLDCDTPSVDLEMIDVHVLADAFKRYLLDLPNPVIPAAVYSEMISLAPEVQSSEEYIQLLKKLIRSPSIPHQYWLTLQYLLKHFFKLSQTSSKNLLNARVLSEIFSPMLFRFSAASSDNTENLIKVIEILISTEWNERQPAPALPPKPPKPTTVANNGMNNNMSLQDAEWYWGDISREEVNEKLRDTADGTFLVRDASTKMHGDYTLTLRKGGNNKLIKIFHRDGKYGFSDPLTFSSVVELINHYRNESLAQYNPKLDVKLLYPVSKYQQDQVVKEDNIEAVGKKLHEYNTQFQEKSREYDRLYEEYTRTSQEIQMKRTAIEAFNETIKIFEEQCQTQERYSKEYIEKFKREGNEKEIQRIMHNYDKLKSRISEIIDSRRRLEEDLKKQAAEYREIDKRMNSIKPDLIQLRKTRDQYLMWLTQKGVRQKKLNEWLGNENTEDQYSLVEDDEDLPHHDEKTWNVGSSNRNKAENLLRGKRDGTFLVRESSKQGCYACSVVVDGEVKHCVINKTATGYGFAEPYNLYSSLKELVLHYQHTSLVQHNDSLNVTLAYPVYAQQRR
Sequence of PI3kα (P42336 whole entry, canonical isoform): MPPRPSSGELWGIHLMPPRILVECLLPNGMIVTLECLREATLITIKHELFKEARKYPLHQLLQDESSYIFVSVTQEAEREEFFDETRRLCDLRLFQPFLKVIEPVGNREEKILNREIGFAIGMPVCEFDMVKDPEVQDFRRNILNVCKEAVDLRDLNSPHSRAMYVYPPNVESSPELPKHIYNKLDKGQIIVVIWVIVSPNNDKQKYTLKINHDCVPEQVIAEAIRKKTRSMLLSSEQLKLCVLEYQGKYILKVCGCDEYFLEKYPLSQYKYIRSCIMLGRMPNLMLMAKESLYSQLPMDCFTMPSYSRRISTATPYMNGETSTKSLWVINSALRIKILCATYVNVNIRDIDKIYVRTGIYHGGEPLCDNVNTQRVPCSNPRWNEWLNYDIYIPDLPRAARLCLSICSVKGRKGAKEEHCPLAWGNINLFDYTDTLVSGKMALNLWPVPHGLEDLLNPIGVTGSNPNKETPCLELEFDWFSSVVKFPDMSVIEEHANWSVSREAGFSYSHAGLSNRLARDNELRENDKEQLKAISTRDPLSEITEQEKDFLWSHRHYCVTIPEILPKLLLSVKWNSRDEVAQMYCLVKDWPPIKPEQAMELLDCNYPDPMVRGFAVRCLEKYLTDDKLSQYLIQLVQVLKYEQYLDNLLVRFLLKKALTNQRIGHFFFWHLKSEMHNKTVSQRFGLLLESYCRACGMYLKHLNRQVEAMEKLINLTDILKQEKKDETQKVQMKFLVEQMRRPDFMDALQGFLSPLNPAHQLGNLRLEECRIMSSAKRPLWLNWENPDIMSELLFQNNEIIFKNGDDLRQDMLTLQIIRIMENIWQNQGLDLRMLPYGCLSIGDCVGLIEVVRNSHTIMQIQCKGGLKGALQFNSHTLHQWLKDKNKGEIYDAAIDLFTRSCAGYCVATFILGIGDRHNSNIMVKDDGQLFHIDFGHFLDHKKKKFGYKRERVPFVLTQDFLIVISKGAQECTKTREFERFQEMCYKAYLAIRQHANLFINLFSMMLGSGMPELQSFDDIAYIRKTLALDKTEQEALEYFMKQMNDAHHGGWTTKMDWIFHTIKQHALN
Sequence of PI3kα (P27986 whole entry partner, canonical isoform): as the sequence (P27986 whole entry partner) above
Sequence of PI3kβ (P42338 whole entry): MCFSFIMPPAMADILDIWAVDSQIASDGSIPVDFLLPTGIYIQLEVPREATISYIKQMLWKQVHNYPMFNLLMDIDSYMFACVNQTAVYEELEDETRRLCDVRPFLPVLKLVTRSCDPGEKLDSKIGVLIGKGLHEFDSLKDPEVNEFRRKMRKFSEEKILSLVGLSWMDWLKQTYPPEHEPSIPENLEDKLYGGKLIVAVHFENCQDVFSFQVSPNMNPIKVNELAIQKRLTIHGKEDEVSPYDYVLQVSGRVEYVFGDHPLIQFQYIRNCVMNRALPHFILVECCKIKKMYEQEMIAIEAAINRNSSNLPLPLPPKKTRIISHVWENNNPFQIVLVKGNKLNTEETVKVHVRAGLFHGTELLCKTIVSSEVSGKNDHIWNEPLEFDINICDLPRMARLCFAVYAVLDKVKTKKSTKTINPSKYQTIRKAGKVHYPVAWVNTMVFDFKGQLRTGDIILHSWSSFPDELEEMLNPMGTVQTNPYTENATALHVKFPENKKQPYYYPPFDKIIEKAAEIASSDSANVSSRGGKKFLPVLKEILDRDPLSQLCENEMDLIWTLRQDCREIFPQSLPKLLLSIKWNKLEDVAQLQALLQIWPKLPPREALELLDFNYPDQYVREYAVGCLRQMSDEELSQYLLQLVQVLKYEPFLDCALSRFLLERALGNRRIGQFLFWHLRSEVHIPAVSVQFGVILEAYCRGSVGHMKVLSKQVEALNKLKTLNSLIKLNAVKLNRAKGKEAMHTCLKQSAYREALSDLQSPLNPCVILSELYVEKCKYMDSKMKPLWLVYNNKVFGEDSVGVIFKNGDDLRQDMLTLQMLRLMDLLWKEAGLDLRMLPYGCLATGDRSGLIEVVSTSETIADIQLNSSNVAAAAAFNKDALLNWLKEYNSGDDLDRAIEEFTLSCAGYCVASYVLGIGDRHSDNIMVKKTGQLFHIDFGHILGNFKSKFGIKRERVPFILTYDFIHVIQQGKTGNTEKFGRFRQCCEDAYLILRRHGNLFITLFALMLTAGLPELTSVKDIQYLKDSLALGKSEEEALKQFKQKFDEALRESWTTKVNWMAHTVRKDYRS
Sequence of PI3kβ (P27986 whole entry partner): as the sequence (P27986 whole entry partner) above
Sequence of PI3kγ (P48736 whole entry): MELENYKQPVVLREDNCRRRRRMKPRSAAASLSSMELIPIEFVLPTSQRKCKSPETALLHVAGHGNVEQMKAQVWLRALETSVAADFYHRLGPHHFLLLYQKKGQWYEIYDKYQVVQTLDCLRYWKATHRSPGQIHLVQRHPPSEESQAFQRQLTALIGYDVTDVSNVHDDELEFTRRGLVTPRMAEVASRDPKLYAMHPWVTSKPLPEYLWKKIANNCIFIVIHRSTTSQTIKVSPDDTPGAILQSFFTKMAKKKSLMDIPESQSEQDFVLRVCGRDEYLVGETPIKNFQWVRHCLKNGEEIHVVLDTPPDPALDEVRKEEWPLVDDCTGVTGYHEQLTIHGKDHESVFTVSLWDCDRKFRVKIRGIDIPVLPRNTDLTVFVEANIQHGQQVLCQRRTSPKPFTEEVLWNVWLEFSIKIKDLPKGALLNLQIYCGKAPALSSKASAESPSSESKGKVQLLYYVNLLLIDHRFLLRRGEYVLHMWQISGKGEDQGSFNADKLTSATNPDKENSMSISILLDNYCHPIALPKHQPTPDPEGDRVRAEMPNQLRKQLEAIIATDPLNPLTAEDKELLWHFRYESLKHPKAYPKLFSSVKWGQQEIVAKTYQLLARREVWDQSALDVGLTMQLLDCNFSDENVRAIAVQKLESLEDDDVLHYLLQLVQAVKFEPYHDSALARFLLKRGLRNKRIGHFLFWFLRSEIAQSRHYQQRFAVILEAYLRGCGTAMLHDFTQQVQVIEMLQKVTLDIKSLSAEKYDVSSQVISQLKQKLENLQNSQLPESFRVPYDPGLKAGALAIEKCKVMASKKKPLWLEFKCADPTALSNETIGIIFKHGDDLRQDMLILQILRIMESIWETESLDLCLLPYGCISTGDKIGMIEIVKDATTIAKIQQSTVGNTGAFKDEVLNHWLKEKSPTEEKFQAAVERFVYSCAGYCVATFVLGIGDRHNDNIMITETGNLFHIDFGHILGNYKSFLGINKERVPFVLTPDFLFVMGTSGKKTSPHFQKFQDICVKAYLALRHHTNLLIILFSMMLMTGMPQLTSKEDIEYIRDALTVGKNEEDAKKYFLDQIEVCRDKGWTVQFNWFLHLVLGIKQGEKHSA

The inhibition is the share of the control response that was lost under treatment. A lower inhibition goes with little suppression. For orientation: melting point means the temperature, or range, at which the solid turns liquid. `CC(C)NS(=O)(=O)c1ccc(-c2nn(C(C)c3oc4cccc(F)c4c(=O)c3-c3cccc(F)c3)c3ncnc(N)c23)cc1` (stereo not shown) [Example 56, 4-(4-amino-1-(1-(5-fluoro-3-(3-fluorophenyl)-4-oxo-4H-chromen-2-yl)ethyl)-1H-pyrazolo[3,4-d]pyrimidin-3-yl)-N-isopropylbenzenesulfonamide] gave a melting point of 211 to 214 °C. The compound also displayed an inhibition at 1 µM on PI3kα of 0 to 25%. The inhibition at 1 µM against PI3kβ lay within 50 to 75%. For the same compound, the inhibition at 0.3 µM at PI3kγ (300 nM (Examples 1-59)) lay within 50 to 75%. This compound displayed an inhibition at 0.3 µM against PI3kδ (300 nM (Examples 1-59)) of 0 to 25%.
`Cc1n[nH]c2cc(-c3nn(C(C)c4oc5cccc(F)c5c(=O)c4-c4cccc(F)c4)c4ncnc(N5CCOCC5)c34)ccc12` (stereo not shown) [Example 112, 5-fluoro-3-(3-fluorophenyl)-2-(1-(3-(3-methyl-1H-indazol-6-yl)-4-morpholino-1H-pyrazolo[3,4-d]pyrimidin-1-yl)ethyl)-4H-chromen-4-one] displayed a melting point of 183 to 186 °C. This compound also showed an inhibition at 1 µM against PI3kα of 50 to 75%. Moreover, the inhibition at 1 µM against PI3kβ lay within 0 to 25%. This compound yielded an inhibition at 0.1 µM against PI3kγ (100 nM (Examples 60-137)) of 50 to 75%. Further, on PI3kδ (100 nM (Examples 60-137)), the inhibition at 0.1 µM is 50 to 75%.
